Results from patent publication US10624877B2, “Composition and method for treatment of symptoms associated with various skin conditions” (priority 2011, dated 2020).

Tests used:
S1P lyase = molecular target: T1, S1P lyase (Mus musculus, UniProt Q8R0X7); details: when administered to mice; cited from earlier work
T1 sequence (Q8R0X7 1-568): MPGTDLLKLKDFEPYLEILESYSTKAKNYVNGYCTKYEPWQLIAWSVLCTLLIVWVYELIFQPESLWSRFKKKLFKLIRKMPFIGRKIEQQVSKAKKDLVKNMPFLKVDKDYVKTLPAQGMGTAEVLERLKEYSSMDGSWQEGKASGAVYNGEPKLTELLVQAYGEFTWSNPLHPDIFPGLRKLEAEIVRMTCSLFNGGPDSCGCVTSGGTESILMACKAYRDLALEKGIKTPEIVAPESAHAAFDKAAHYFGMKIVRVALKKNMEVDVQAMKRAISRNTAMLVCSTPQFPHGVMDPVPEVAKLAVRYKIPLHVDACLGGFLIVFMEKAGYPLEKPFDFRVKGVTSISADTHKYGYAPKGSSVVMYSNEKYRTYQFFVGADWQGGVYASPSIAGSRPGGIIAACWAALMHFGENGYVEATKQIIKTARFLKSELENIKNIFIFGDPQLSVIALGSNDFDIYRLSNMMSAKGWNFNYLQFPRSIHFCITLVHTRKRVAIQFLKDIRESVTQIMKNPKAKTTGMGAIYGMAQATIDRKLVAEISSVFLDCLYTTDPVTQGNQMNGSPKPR

[1] = Examination of 1.0% THI cream on a mixing plate; type: physicochemical; details: 100 mg THI in 10 g base cream (1.0%)
Experimental: A topical formulation containing 100 mg of THI in 10 g of base cream was prepared as follows. […] A smooth cream was obtained by levigation in a marble mortar and pestle. A dime-sized portion of the […] material was then incorporate geometrically with similar-sized portions of base and mixed thoroughly. […] Application of the finished cream to the skin left no residue.

mice = details: administration to mice; cited from earlier work
humans = details: studies in humans; cited from earlier work
rats = details: administration to rats; cited from earlier work
skin [2] = details: human exposure studies and clinical experience; cited from earlier work
[3] = chronic studies; cited from earlier work
[4] = in vivo; cited from earlier work
[5] = dermal laboratory studies; cited from earlier work
[6] = subchronic oral, high doses; cited from earlier work
skin [7] = details: clinical studies; cited from earlier work
skin [8] = details: clinical studies; could be related to formaldehyde release; cited from earlier work
[9] = concentrations higher than in products; attributed to formaldehyde release; cited from earlier work
skin [10] = details: cited from earlier work
[11] = laboratory study; cited from earlier work
eye = details: in vivo; cited from earlier work
[12] = in vivo; cited from earlier work; remark: listed apart in the source

For `CC(=O)c1nc(C(O)C(O)C(O)CO)c[nH]1` (stereo not shown) [THI, 2-acetyl-4-tetrahydroxybutylimidazole], the S1P lyase activity (S1P lyase) is given as “inhibits S1P lyase activity”, the “dissolution of THI in the cream base” value [1] is given as “at least partially dissolving in the cream base” and the “accumulation of mature T cells in the thymus” value (mice) is given as “causes the accumulation of mature T cells in the thymus”. For the same compound, the lymphopenia (mice) was “induces lymphopenia”, the “immunological effects in humans” value (humans) was “no immunological effects” and the “accumulation of mature T cells in the thymus” value (rats) was “causes the accumulation of mature T cells in the thymus”. For the same compound, the lymphopenia (rats) was “induces lymphopenia”.

In the case of `CCCCCCCCCCCCCCCCCC(=O)OCC(O)CO` (stereo not shown) [glyceryl stearate, Glyceryl stearate], the “sensitization, phototoxicity, photosensitization” value (skin [2]) is listed as “non-sensitizing, non-phototoxic and non-photosensitizing”, the carcinogenic effects [3] is listed as “no carcinogenic effects” and the effects on reproduction [3] is listed as “no adverse effects on reproduction”.

In the case of `OCCOc1ccccc1` [phenoxyethanol, 2-Phenoxyethanol], the “toxicity via oral and dermal administration” value [4] is given as “practically nontoxic”, the birth defects [5] is given as “did not cause any birth defects” and the organ weights [6] is given as “increased weights of some organs”. For the same compound, the delayed hypersensitivity (skin [7]) was “did not cause delayed hypersensitivity”, the phototoxicity (skin [7]) was “nonphototoxic” and the “primary and cumulative irritation” value (skin [7]) was “neither a primary nor a cumulative irritant”.

For `CC1(C)C(=O)N(CO)C(=O)N1CO` [DMDM hydantoin, 1,3-Bis(hydroxymethyl)-5,5-dimethylimidazolidine-2,4-dione], the skin irritation (skin [8]) is given as “some observations of skin irritation”, the in vitro mutagenicity [9] is given as “positive results in some in vitro mutagenicity studies” and the “absorption from the skin” value (skin [10]) is given as “poorly absorbed from the skin”. The “adverse effects of oral exposure” value [11] was “did not result in any adverse effects”.

In the case of Carbomer, the eye irritation (eye) is listed as “no to moderate eye irritation”.

In the case of PEG-100 stearate, the “changes in growth, histopathologic observations or hematologic values” [12] is given as “no significant changes”.
